{"source": "patent US10517889B2", "about": "“Modulators of SMAD7 expression” (Ionis Pharmaceuticals, Inc., priority 2017, dated 2019)", "note": "Strand notation (5' to 3'): a small letter for the sugar, then the base; units joined by * are phosphorothioate-linked, units joined directly phosphodiester-linked; [ ] holds rarer units or linkages, { } end groups; capitals alone tell only the bases. k = constrained ethyl (cEt); [5mC] = 5-methylcytosine; d = 2'-deoxy (DNA)", "data": [{"tested_on": "human SMAD7 mRNA", "assay": "Antisense inhibition of human SMAD7 mRNA expression in Hep3B cells by 3-10-3 cEt gapmers, 10,000 nM, electroporation (Example 2)", "format": "cell-based", "settings": "Hep3B cells, 10,000 nM antisense oligonucleotide, electroporation, approximately 24 hours, RT-PCR primer probe set RTS5062, relative to untreated control cells", "how_it_was_run": "(§1)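 Hep3B cells (20,000/well) were electroporated with 10,000 nM 3-10-3 cEt gapmer (16-mer, phosphorothioate, 5-methylcytosines) and harvested after about 24 h. SMAD7 mRNA quantified by RT-qPCR with primer probe set RTS5062, normalized to total RNA by RiboGreen; percent inhibition relative to untreated cells.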", "units": {"% Inhibition": "%"}, "values": [{"substance": "799910 (antisense k[5mC]*k[5mC]*kA*dA*d[5mC]*dT*d[5mC]*d[5mC]*dA*dT*dT*d[5mC]*dA*kT*kA*kA) [compound 799910]", "% Inhibition": 36}, {"substance": "799911 (antisense kA*kG*k[5mC]*d[5mC]*dA*dA*d[5mC]*dT*d[5mC]*d[5mC]*dA*dT*dT*k[5mC]*kA*kT) [compound 799911]", "% Inhibition": 0}, {"substance": "799912 (antisense k[5mC]*kT*k[5mC]*dA*dG*dA*dG*dG*dA*dA*dG*dG*dG*kT*kG*kG) [compound 799912]", "% Inhibition": 22}, {"substance": "799913 (antisense kG*kG*k[5mC]*d[5mC]*dT*d[5mC]*dA*dG*dA*dG*dG*dA*dA*kG*kG*kG) [compound 799913]", "% Inhibition": 18}, {"substance": "799914 (antisense k[5mC]*kT*kG*dA*dG*dA*dG*dA*dG*dG*d[5mC]*d[5mC]*dT*k[5mC]*kA*kG) [compound 799914]", "% Inhibition": 24}, {"substance": "799915 (antisense kG*k[5mC]*kT*dG*dA*d[5mC]*dG*d[5mC]*dG*dG*d[5mC]*dT*dT*k[5mC]*k[5mC]*kT) [compound 799915]", "% Inhibition": 52}, {"substance": "799916 (antisense k[5mC]*kA*k[5mC]*dA*dA*dA*dT*d[5mC]*dA*dA*dA*dA*dG*k[5mC]*kT*k[5mC]) [compound 799916]", "% Inhibition": 47}, {"substance": "799917 (antisense kT*kG*kG*dA*dG*dA*dA*dT*dG*dT*dA*dA*dT*kT*kG*kA) [compound 799917]", "% Inhibition": 17}, {"substance": "799918 (antisense k[5mC]*kA*kT*dT*dT*dA*dT*d[5mC]*dT*d[5mC]*dG*d[5mC]*d[5mC]*kA*kT*kG) [compound 799918]", "% Inhibition": 16}, {"substance": "799919 (antisense kT*k[5mC]*k[5mC]*dT*dA*dA*dG*dA*dG*d[5mC]*dA*dT*dT*kT*kA*kT) [compound 799919]", "% Inhibition": 0}, {"substance": "799930 (antisense kT*k[5mC]*kT*dT*dT*dT*dA*dT*d[5mC]*dA*d[5mC]*dT*dG*kT*k[5mC]*kA) [compound 799930]", "% Inhibition": 8}, {"substance": "799932 (antisense kT*k[5mC]*kA*dA*dG*dA*dG*dA*d[5mC]*dG*dG*dT*dG*kA*kG*k[5mC]) [compound 799932]", "% Inhibition": 0}, {"substance": "799933 (antisense kT*kA*k[5mC]*dT*dA*dT*dT*d[5mC]*dA*dT*d[5mC]*dA*d[5mC]*k[5mC]*k[5mC]*kT) [compound 799933]", "% Inhibition": 22}, {"substance": "799934 (antisense kA*k[5mC]*kT*dT*dT*dT*dT*dA*d[5mC]*dT*d[5mC]*dT*dG*kT*k[5mC]*kT) [compound 799934]", "% Inhibition": 61}, {"substance": "799935 (antisense kA*kG*kA*dA*dA*dT*dG*dA*d[5mC]*dT*dT*dT*dT*kT*kA*k[5mC]) [compound 799935]", "% Inhibition": 42}, {"substance": "799936 (antisense k[5mC]*kT*kT*dT*dA*dA*dT*dT*dT*d[5mC]*dA*dG*dA*kG*kT*k[5mC]) [compound 799936]", "% Inhibition": 44}, {"substance": "799937 (antisense kT*k[5mC]*kT*dT*dT*dA*dA*dT*dT*dT*d[5mC]*dA*dG*kA*kG*kT) [compound 799937]", "% Inhibition": 24}, {"substance": "799938 (antisense k[5mC]*kT*k[5mC]*dT*dA*dA*dA*d[5mC]*d[5mC]*dA*dA*d[5mC]*dT*kT*kT*kT) [compound 799938]", "% Inhibition": 17}, {"substance": "799939 (antisense kG*k[5mC]*kA*dT*dT*dT*dA*dA*dT*dT*dT*dG*d[5mC]*kA*kA*k[5mC]) [compound 799939]", "% Inhibition": 38}, {"substance": "799950 (antisense kG*k[5mC]*kA*d[5mC]*dA*dA*dG*dT*d[5mC]*dA*d[5mC]*dT*dG*kG*k[5mC]*k[5mC]) [compound 799950]", "% Inhibition": 0}, {"substance": "799951 (antisense kT*k[5mC]*kT*dT*dA*dA*dA*dA*dA*dA*dA*dG*dG*kG*kA*kG) [compound 799951]", "% Inhibition": 0}, {"substance": "799952 (antisense k[5mC]*kT*k[5mC]*dT*dA*dA*dG*dT*dG*dG*d[5mC]*dT*d[5mC]*kA*kT*kG) [compound 799952]", "% Inhibition": 30}, {"substance": "799953 (antisense kA*kG*kA*dA*dA*dA*dT*dG*d[5mC]*d[5mC]*d[5mC]*dA*d[5mC]*k[5mC]*kA*kG) [compound 799953]", "% Inhibition": 0}, {"substance": "799954 (antisense k[5mC]*kA*kG*dA*dA*dA*dA*dT*dG*d[5mC]*d[5mC]*d[5mC]*dA*k[5mC]*k[5mC]*kA) [compound 799954]", "% Inhibition": 42}, {"substance": "799955 (antisense k[5mC]*kG*k[5mC]*dT*d[5mC]*dA*dG*dA*dA*dA*dA*dT*dG*k[5mC]*k[5mC]*k[5mC]) [compound 799955]", "% Inhibition": 50}, {"substance": "799956 (antisense kT*k[5mC]*kT*d[5mC]*d[5mC]*dA*dG*d[5mC]*d[5mC]*dG*d[5mC]*dT*d[5mC]*kA*kG*kA) [compound 799956]", "% Inhibition": 57}, {"substance": "799957 (antisense kT*k[5mC]*kT*dG*dA*dG*dG*d[5mC]*dT*d[5mC]*d[5mC]*dT*dG*kG*kG*kT) [compound 799957]", "% Inhibition": 11}, {"substance": "799958 (antisense kG*kT*kG*dG*dA*dG*dA*dG*dT*dG*d[5mC]*dT*dG*k[5mC]*kA*k[5mC]) [compound 799958]", "% Inhibition": 23}, {"substance": "799959 (antisense kA*kG*k[5mC]*dT*dT*dG*dT*dG*dG*dA*dG*dA*dG*kT*kG*k[5mC]) [compound 799959]", "% Inhibition": 1}]}, {"tested_on": "human SMAD7 mRNA", "assay": "Antisense inhibition of human SMAD7 mRNA expression in Hep3B cells by 3-10-3 cEt gapmers, 10,000 nM, electroporation (Example 2)", "format": "cell-based", "settings": "Hep3B cells, electroporation with 10,000 nM antisense oligonucleotide, approximately 24 hours, SMAD7 mRNA by RT-PCR (RTS5062), relative to untreated control cells", "how_it_was_run": "as §1", "units": {"% Inhibition": "%"}, "values": [{"substance": "799908 (antisense k[5mC]*kA*kT*dA*dA*dT*dA*dT*dT*dG*dA*d[5mC]*dA*kG*kT*kA) [compound 799908]", "% Inhibition": 41}, {"substance": "799909 (antisense kA*kT*kT*d[5mC]*dA*dT*dA*dA*dT*dA*dT*dT*dG*kA*k[5mC]*kA) [compound 799909]", "% Inhibition": 36}, {"substance": "799920 (antisense kG*kA*kT*dG*dA*dA*dT*dG*d[5mC]*dT*d[5mC]*d[5mC]*dT*kA*kA*kG) [compound 799920]", "% Inhibition": 0}, {"substance": "799922 (antisense kA*k[5mC]*kA*d[5mC]*dT*dA*dA*dT*dT*dA*dG*dT*dG*kA*k[5mC]*kT) [compound 799922]", "% Inhibition": 15}, {"substance": "799923 (antisense kG*k[5mC]*k[5mC]*dT*dA*d[5mC]*dA*dT*dA*dT*dT*dT*d[5mC]*kG*k[5mC]*kA) [compound 799923]", "% Inhibition": 15}, {"substance": "799924 (antisense k[5mC]*kA*kA*dG*d[5mC]*d[5mC]*dT*dA*d[5mC]*dA*dT*dA*dT*kT*kT*k[5mC]) [compound 799924]", "% Inhibition": 22}, {"substance": "799925 (antisense k[5mC]*k[5mC]*kA*dA*dG*d[5mC]*d[5mC]*dT*dA*d[5mC]*dA*dT*dA*kT*kT*kT) [compound 799925]", "% Inhibition": 10}, {"substance": "799926 (antisense k[5mC]*k[5mC]*k[5mC]*dA*dA*dG*d[5mC]*d[5mC]*dT*dA*d[5mC]*dA*dT*kA*kT*kT) [compound 799926]", "% Inhibition": 17}, {"substance": "799927 (antisense kT*k[5mC]*k[5mC]*d[5mC]*dA*dA*dG*d[5mC]*d[5mC]*dT*dA*d[5mC]*dA*kT*kA*kT) [compound 799927]", "% Inhibition": 0}, {"substance": "799928 (antisense k[5mC]*kT*k[5mC]*d[5mC]*d[5mC]*dA*dA*dG*d[5mC]*d[5mC]*dT*dA*d[5mC]*kA*kT*kA) [compound 799928]", "% Inhibition": 7}, {"substance": "799929 (antisense kT*kG*k[5mC]*d[5mC]*d[5mC]*dA*dG*dG*d[5mC]*dT*dT*dG*dG*kT*kT*k[5mC]) [compound 799929]", "% Inhibition": 9}, {"substance": "799940 (antisense k[5mC]*kT*kT*dT*dG*dA*dG*dG*dA*dG*d[5mC]*dA*dG*kG*kG*kT) [compound 799940]", "% Inhibition": 50}, {"substance": "799941 (antisense kT*kT*kT*dA*d[5mC]*dT*dA*d[5mC]*d[5mC]*dT*dT*d[5mC]*d[5mC]*kA*kG*kA) [compound 799941]", "% Inhibition": 44}, {"substance": "799942 (antisense kA*kA*k[5mC]*dA*d[5mC]*dT*dG*dG*dT*dT*d[5mC]*d[5mC]*dA*kT*kT*kT) [compound 799942]", "% Inhibition": 0}, {"substance": "799943 (antisense kT*kG*k[5mC]*d[5mC]*d[5mC]*dT*d[5mC]*dT*d[5mC]*dA*dG*dG*dG*kT*k[5mC]*kT) [compound 799943]", "% Inhibition": 0}, {"substance": "799944 (antisense k[5mC]*kT*kG*d[5mC]*dA*dG*d[5mC]*dA*dA*dG*dA*dA*dG*kT*kG*kG) [compound 799944]", "% Inhibition": 5}, {"substance": "799945 (antisense kA*kG*k[5mC]*dT*dT*dT*dT*dA*dG*dA*dG*d[5mC]*dT*kG*k[5mC]*kG) [compound 799945]", "% Inhibition": 5}, {"substance": "799946 (antisense kT*k[5mC]*kA*dG*dA*dA*d[5mC]*dA*d[5mC]*dA*d[5mC]*dT*dT*kT*kG*kG) [compound 799946]", "% Inhibition": 2}, {"substance": "799947 (antisense kT*k[5mC]*kT*dA*dA*dA*dG*d[5mC]*d[5mC]*dA*d[5mC]*d[5mC]*dA*kA*kG*k[5mC]) [compound 799947]", "% Inhibition": 28}, {"substance": "799948 (antisense kA*kT*kA*dT*dT*dG*d[5mC]*d[5mC]*dT*dG*dG*dT*dG*kT*kG*kA) [compound 799948]", "% Inhibition": 48}, {"substance": "799949 (antisense kA*k[5mC]*kT*dG*dG*d[5mC]*d[5mC]*dG*dA*dA*dG*dT*dG*k[5mC]*kA*kG) [compound 799949]", "% Inhibition": 10}, {"substance": "799960 (antisense kA*kA*kA*d[5mC]*dA*dG*dG*dG*dT*dT*d[5mC]*d[5mC]*d[5mC]*k[5mC]*k[5mC]*kA) [compound 799960]", "% Inhibition": 8}, {"substance": "799961 (antisense k[5mC]*k[5mC]*kT*dA*dA*dA*dA*d[5mC]*dA*dG*dG*dG*dT*kT*k[5mC]*k[5mC]) [compound 799961]", "% Inhibition": 20}, {"substance": "799962 (antisense k[5mC]*k[5mC]*kA*dA*d[5mC]*d[5mC]*d[5mC]*d[5mC]*dA*dG*dA*dG*dG*kT*kG*kA) [compound 799962]", "% Inhibition": 0}, {"substance": "799963 (antisense kA*kG*k[5mC]*d[5mC]*dA*dT*dG*dG*d[5mC]*dA*dG*dA*dA*k[5mC]*k[5mC]*k[5mC]) [compound 799963]", "% Inhibition": 6}]}]}
